target: CRBN truncate (318-426) (Homo sapiens (Human), UniProt Q96SW2); experiment: Measurement of molecular interactions using surface plasmon resonance (SPR), Biacore T200; type: binding; conditions: 25° C., immobilized CRBN truncate, upper limit of measurement 200 μM
In short: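 C-terminally Avi-tagged CRBN (318-426) captured on a streptavidin SA chip on a Biacore T200. Running buffer 10 mM HEPES pH 7.5, 150 mM NaCl, 1 mM TCEP, 0.005% Tween 20, 2% DMSO; 60 s contact, 120 s dissociation.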

Chain of CRBN truncate (318-426) (Q96SW2 318-426): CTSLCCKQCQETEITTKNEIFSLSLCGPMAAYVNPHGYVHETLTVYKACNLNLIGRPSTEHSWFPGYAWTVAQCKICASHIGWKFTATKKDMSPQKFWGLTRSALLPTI

Kd, 50 to 100 µM:
O=C1CCCC(n2nc(-c3ccccc3)ccc2=O)C(=O)N1 (centres unmarked) [Example 246, 3-(6-Oxo-3-phenylpyridazin-1-yl) azepane-2,7-dione]
CC(C)(C)OC(=O)CCc1ccc2c(c1)oc(=O)n2C1CCCC(=O)NC1=O (centres unmarked) [Example 260, tert-Butyl 3-[3-(2,7-dioxoazepan-3-yl)-2-oxo-1,3-benzoxazol-6-yl]propanoate]
Cn1c(=O)n(C2CCCC(=O)NC2=O)c(=O)c2ccc(Br)cc21 (centres unmarked) [Example 261, 7-Bromo-3-(2,7-dioxoazepan-3-yl)-1-methylquinazoline-2,4-dione]
CC(C)(C)OC(=O)CCc1ccc2c(c1)sc(=O)n2C1CCCC(=O)NC1=O (centres unmarked) [Example 262, tert-Butyl 3-[3-(2,7-dioxoazepan-3-yl)-2-oxo-1,3-benzothiazol-6-yl]propanoate]
CC1(N2CC=CC(=O)NC2=O)C(=O)N(CC(=O)OCc2ccccc2)c2ccccc21 (centres unmarked) [Example 283, Benzyl 2-[3-(2,7-dioxo-4H-1,3-diazepin-3-yl)-3-methyl-2-oxoindol-1-yl]acetate]
Cn1nc(N2CCCC(=O)NC2=O)c2ccc(CCC(=O)OC(C)(C)C)cc21 [Example 291, tert-Butyl 3-[3-(2,4-dioxo-1,3-diazepan-1-yl)-1-methylindazol-6-yl]propanoate]

Kd, < 50 µM:
COc1ccc2nc(N3CC4(CC(=O)N(C5CCC(=O)NC5=O)C4=O)C3)sc2c1 (centres unmarked) [Example 238, 6-(2,6-Dioxopiperidin-3-yl)-2-(6-methoxy-1,3-benzothiazol-2-yl)-2,6-diazaspiro[3.4]octane-5,7-dione]
COc1ccc2sc(N3CC4(CC(=O)N(C5CCC(=O)NC5=O)C4=O)C3)nc2c1 (centres unmarked) [Example 239, 6-(2,6-Dioxopiperidin-3-yl)-2-(5-methoxy-1,3-benzothiazol-2-yl)-2,6-diazaspiro[3.4]octane-5,7-dione]
O=C1CCC(N2C(=O)CC3(CN(C4CCN(CC(=O)OCc5ccccc5)CC4)C3)C2=O)C(=O)N1 (centres unmarked) [Example 277, Benzyl 2-[4-[6-(2,6-dioxopiperidin-3-yl)-5,7-dioxo-2,6-diazaspiro [3.4]octan-2-yl]piperidin-1-yl]acetate]
Cn1nc(N2C=CCC(=O)NC2=O)c2ccc(/C=C/C(=O)OC(C)(C)C)cc21 [Example 287, tert-Butyl (E)-3-[3-(2,4-dioxo-5H-1,3-diazepin-1-yl)-1-methylindazol-6-yl]prop-2-enoate]
CN1C(=O)C(C)(N2C=CCC(=O)NC2=O)c2ccc(/C=C/C(=O)OC(C)(C)C)cc21 (centres unmarked) [Example 288, tert-Butyl (E)-3-[3-(2,4-dioxo-5H-1,3-diazepin-1-yl)-1,3-dimethyl-2-oxoindolin-6-yl]prop-2-enoate]
CN1C(=O)C(C)(N2C=CCC(=O)NC2=O)c2cccc(/C=C/C(=O)OC(C)(C)C)c21 (centres unmarked) [Example 289, tert-Butyl (E)-3-[3-(2,4-dioxo-5H-1,3-diazepin-1-yl)-1,3-dimethyl-2-oxoindolin-7-yl]prop-2-enoate]

Kd, ≥ 100 µM:
CC(C)(C)OC(=O)N1CCC(Oc2ccc(CN3CC4(CC(=O)N(C5CCC(=O)NC5=O)C4=O)C3)cc2)CC1 (centres unmarked) [Example 237, tert-Butyl 4-[4-[[6-(2,6-dioxopiperidin-3-yl)-5,7-dioxo-2,6-diazaspiro[3.4]octan-2-yl]methyl]phenoxy]piperidine-1-carboxylate]
COc1cccc2sc(N3CC4(CC(=O)N(C5CCC(=O)NC5=O)C4=O)C3)nc12 (centres unmarked) [Example 240, 6-(2,6-Dioxopiperidin-3-yl)-2-(4-methoxy-1,3-benzothiazol-2-yl)-2,6-diazaspiro[3.4]octane-5,7-dione]
CC(C)(C)OC(=O)NCCCCCOc1ccc2nc(N3CC4(CC(=O)N(C5CCC(=O)NC5=O)C4=O)C3)sc2c1 (centres unmarked) [Example 241, tert-Butyl N-[5-[[2-[6-(2,6-dioxopiperidin-3-yl)-5,7-dioxo-2,6-diazaspiro[3.4]octan-2-yl]-1,3-benzothiazol-6-yl]oxy]pentyl]carbamate]
CC(C)(C)OC(=O)N1CCc2c(ncnc2N2CC3(CC(=O)N(C4CCC(=O)NC4=O)C3=O)C2)C1 (centres unmarked) [Example 242, tert-Butyl 4-[6-(2,6-dioxo-3-piperidyl)-5,7-dioxo-2,6-diazaspiro[3.4]octan-2-yl]-6,8-dihydro-5H-pyrido[3,4-d]pyrimidine-7-carboxylate]
CC(C)(C)OC(=O)c1ccc(C2(F)CCCC(=O)NC2=O)cc1 (centres unmarked) [Example 243, tert-Butyl 4-(3-fluoro-2,7-dioxoazepan-3-yl) benzoate]
CC(=O)Nc1cccc(C2(F)CCCC(=O)NC2=O)c1 (centres unmarked) [Example 245, N-[3-(3-Fluoro-2,7-dioxoazepan-3-yl)phenyl]acetamide]
O=C1CCCC(n2ncc(-c3ccccc3)cc2=O)C(=O)N1 (centres unmarked) [Example 247, 3-(6-oxo-4-phenylpyridazin-1-yl)azepane-2,7-dione]
O=C1CCCC(n2ncc(Cl)cc2=O)C(=O)N1 (centres unmarked) [Example 248, 3-(4-Chloro-6-oxopyridazin-1-yl)azepane-2,7-dione]
O=C1CCCC(n2nnc3ccccc32)C(=O)N1 (centres unmarked) [Example 250, 3-(Benzotriazol-1-yl)azepine 2,7-dione]
COc1ccc2nn(C3CCCC(=O)NC3=O)nc2c1 (centres unmarked) [Example 251, 3-(5-Methoxybenzotriazol-2-yl)azepane-2,7-dione]
O=C1CCCC(n2nc(Cl)ccc2=O)C(=O)N1 (centres unmarked) [Example 252, 3-(3-Chloro-6-oxopyridazin-1-yl)azepane-2,7-dione]
COc1ccc2c(c1)nnn2C1CCCC(=O)NC1=O (centres unmarked) [Example 253, 3-(5-Methoxybenzotriazol-1-yl)azepane-2,7-dione]
COc1ccc2nnn(C3CCCC(=O)NC3=O)c2c1 (centres unmarked) [Example 254, 3-(6-Methoxybenzotriazol-1-yl)azepane-2,7-dione]
COc1cccc2c1nnn2C1CCCC(=O)NC1=O (centres unmarked) [Example 255, 3-(4-Methoxybenzotriazol-1-yl)azepane-2,7-dione]
COc1cccc2nn(C3CCCC(=O)NC3=O)nc12 (centres unmarked) [Example 256, 3-(4-Methoxybenzotriazol-2-yl)azepane-2,7-dione]
O=C1CCCC(n2c(=O)ccc3cc(Br)ccc32)C(=O)N1 (centres unmarked) [Example 257, 3-(6-Bromo-2-oxoquinolin-1-yl)azepane-2,7-dione]
COc1cccc2c1ccc(=O)n2C1CCCC(=O)NC1=O (centres unmarked) [Example 258, 3-(5-Methoxy-2-oxoquinolin-1-yl)azepane-2,7-dione]
Cn1c(=O)c(=O)n(C2CCCC(=O)NC2=O)c2ccccc21 (centres unmarked) [Example 259, 1-(2,7-Dioxoazepan-3-yl)-4-methylquinoxaline-2,3-dione]
Cn1c(=O)n(C2CCCC(=O)NC2=O)c(=O)c2ccc(CCC(=O)OC(C)(C)C)cc21 (centres unmarked) [Example 265, tert-Butyl 3-[3-(2,7-dioxoazepan-3-yl)-1-methyl-2,4-dioxoquinazolin-7-yl]propanoate]
Cn1c(-c2ccc(CCC(=O)OC(C)(C)C)cc2)nn(C2CCCC(=O)NC2=O)c1=O (centres unmarked) [Example 266, tert-Butyl 3-[4-[1-(2,7-dioxoazepan-3-yl)-4-methyl-5-oxo-1,2,4-triazol-3-yl]phenyl]propanoate]
O=C1CCCC(Oc2ccc(Br)cc2)C(=O)N1 (centres unmarked) [Example 267, 3-(4-Bromophenoxy) azepane-2,7-dione]
CC(C)(C)OC(=O)c1ccc(OC2CCCC(=O)NC2=O)nc1 (centres unmarked) [Example 268, tert-Butyl 6-(2,7-dioxoazepan-3-yl) oxypyridine-3-carboxylate]
O=C1CCCC2(CCN(C(=O)C3CCN(c4ncccn4)CC3)C2)C(=O)N1 (centres unmarked) [Example 269, 2-(1-Pyrimidin-2-ylpiperidine-4-carbonyl)-2,7-diazaspiro [4.6]undecane-6,8-dione]
CN(C1CCCC(=O)NC1=O)S(=O)(=O)c1ccc(CCCCCCNC(=O)OC(C)(C)C)cc1 (centres unmarked) [Example 271, tert-Butyl N-[6-[4-[(2,7-dioxoazepan-3-yl)-methylsulfamoyl]phenyl]hexyl]carbamate]
CN1CCN(c2cnn(C3CCCC(=O)NC3=O)c(=O)c2)CC1 (centres unmarked) [Example 272, 3-[4-(4-Methylpiperazin-1-yl)-6-oxopyridazin-1-yl]azepane-2,7-dione]
CCOC(=O)c1ccc2nc(N3CC4(CC(=O)N(C5CCCC(=O)NC5=O)C4=O)C3)sc2c1 (centres unmarked) [Example 273-2, Ethyl 2-[6-(2,7-dioxoazepan-3-yl)-5,7-dioxo-2,6-diazaspiro [3.4]octan-2-yl]-1,3-benzothiazole-6-carboxylate]
O=C1CCCC(N2C(=O)OCc3cc([N+](=O)[O-])ccc32)C(=O)N1 (centres unmarked) [Example 274, 3-(6-Nitro-2-oxo-4H-3,1-benzoxazin-1-yl) azepane-2,7-dione]
CC(C)(C)OC(=O)Cn1c(=O)c(=O)n(C2CCCC(=O)NC2=O)c2ccccc21 (centres unmarked) [Example 275, tert-Butyl 2-[4-(2,7-dioxoazepan-3-yl)-2,3-dioxoquinoxalin-1-yl]acetate]
CC(C)(C)OC(=O)N1CCC(c2ccc(OC3CCCC(=O)NC3=O)cc2)CC1 (centres unmarked) [Example 276]
CC(C)(C)OC(=O)NCCc1ccc(S(=O)(=O)N2CC3(CC(=O)N(C4CCC(=O)NC4=O)C3=O)C2)cc1 (centres unmarked) [Example 278, tert-Butyl N-[2-[4-[[6-(2,6-dioxopiperidin-3-yl)-5,7-dioxo-2,6-diazaspiro [3.4]octan-2-yl]sulfonyl]phenyl]ethyl]carbamate]
Cn1nc(N2CC=CC(=O)NC2=O)c2ccc(Br)cc21 [Example 281, 3-(6-Bromo-1-methylindazol-3-yl)-4H-1,3-diazepine-2,7-dione]
CC1(N2CCCC(=O)NC2=O)C(=O)N(CC(=O)O)c2ccccc21 (centres unmarked) [Example 292, 2-[3-(2,4-dioxo-1,3-diazepan-1-yl)-3-methyl-2-oxoindol-1-yl]acetic acid]
